According to article PMC4382465 (The Journal of antibiotics, 2014):
In brackets after ≈: the same amount, converted by molar mass.

Key:
[1] = test system: M. tuberculosis H37Rv RFPr; experiment: MIC, broth dilution; assay type: cell-based; details: Mycobacterium tuberculosis
[2] = test system: M. tuberculosis H37Rv INHr; experiment: MIC, broth dilution; assay type: cell-based; details: Mycobacterium tuberculosis

SMILES | MIC [1] [µg/mL] | MIC [2] [µg/mL]
CO[C@H]1/C=C/O[C@@]2(C)Oc3c(C)c(O)c4c(O)c(c(/C=N/N5CCN(C)CC5)c(O)c4c3C2=O)NC(=O)/C(C)=C\C=C\[C@H](C)[C@H](O)[C@@H](C)[C@@H](O)[C@@H](C)[C@H](OC(C)=O)[C@@H]1C [Rifampicin (RFP), Rifampicin] | > 4 | 
COC1C(C(OC2OC(C(=O)NC3CCCCNC3=O)=CC(O)C2O)C(N)=O)OC(n2ccc(=O)[nH]c2=O)C1OC (stereo not drawn) [UT-01320 (3), 6-{Carbamoyl-[5-(2,4-dioxo-3,4-dihydro-2H-pyrimidin-1-yl)-3,4-dimethoxy-tetrahydro-furan-2-yl]-methoxy}-4,5-dihydroxy-5,6-dihydro-4H-pyran-2-carboxylic acid (2-oxo-azepan-3-yl)-amide] | 2.45 (≈ 4.2 µM) | 2.5 (≈ 4.28 µM)
